Measurements: patent US12029738B2, “Antiproliferative compounds and methods of use thereof” (Celgene Corporation, priority 2017, dated 2024)
“And” between values parts separate entries of the source, which are not always exact repeats. Equal entries are not always repeated. Where two headings read alike, the source gives them in different places.

What was measured:
dopamine D2S receptor = biological target: T1, dopamine D2S receptor (Homo sapiens, UniProt P14416); assay: Dopamine D2S receptor radioligand binding (HEK-293); details: for inhibition at 10 µM: read-out: Dopamine D2S % Inhibition (10 μM)
T1 construct: host or cells: HEK-293 cells (membrane homogenates)
T1 sequence (P14416 1-414 isoform P14416-2): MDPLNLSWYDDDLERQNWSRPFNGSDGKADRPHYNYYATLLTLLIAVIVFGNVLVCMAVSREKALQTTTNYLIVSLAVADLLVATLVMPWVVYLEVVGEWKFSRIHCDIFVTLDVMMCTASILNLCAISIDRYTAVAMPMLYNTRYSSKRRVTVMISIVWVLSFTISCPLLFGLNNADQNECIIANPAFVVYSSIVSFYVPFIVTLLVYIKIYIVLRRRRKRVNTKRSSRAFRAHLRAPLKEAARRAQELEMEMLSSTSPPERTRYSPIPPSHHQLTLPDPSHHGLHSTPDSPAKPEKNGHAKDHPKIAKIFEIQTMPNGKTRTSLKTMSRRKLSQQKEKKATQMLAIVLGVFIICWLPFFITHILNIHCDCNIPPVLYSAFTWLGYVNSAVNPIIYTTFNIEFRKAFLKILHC
Experimental: (§1) α1 Adrenergic and Dopamine D2 Receptors. Methods: Binding and functional assays for α1 adrenergic and dopamine D2 receptors were performed by Eurofins Cerep according to their methods.
Dopamine D2 Receptor. Binding at 10 μM. The binding assay evaluated the affinity of test articles for the dopamine D2 receptor in transfected human embryonic kidney (HEK)-293 cells. For determining the binding in the D2S receptor assay, test article was incubated with 0.3 nM [^3H] methylspiperone or 1 nM [^3H] 7-hydroxy-2-N,N-dipropylaminotetralin (7-OH-DPAT). [3H] Methylspiperone at 0.3 nM also was used as control ligand in the D2L binding assay. Cell membrane homogenates were incubated in duplicate at room temperature for 60 minutes with ligand in the absence or presence of test articles at 10 μM. After the incubation period, samples were filtered through glass fiber filters, the filters dried and then counted for radioactivity using a scintillation counter. Results are expressed as mean percent inhibition of control radioligand binding.
Binding IC50. To determine the binding IC50 in the D2 receptor assays, HEK-293 were tested as described above but with varying concentrations of test article. Compound A was tested at 0.01-30 μM in the D2S radioligand binding assay. […] Compound 1 was assayed at 0.03-100 μM in both the D2S and D2L assays, while Compound 2 was tested at 0.03-100 μM in the D2S assay and 0.01-100 μM in the D2L assays. The IC50 was defined as the concentration causing a half-maximum inhibition of control specific binding.

[1] = system: non-selective α1 adrenergic receptor; assay: α1 adrenergic receptor radioligand binding ([3H]prazosin); details: rat cerebral cortex; for Adrenergic α1 (non-selective) % Inhibition (10 μM): 0.25 nM [3H]prazosin; for IC50: [3H]prazosin
Experimental: as §1
α1 Adrenergic Receptor. Binding at 10 μM. The binding assay evaluated the affinity of test article for the non-selective α1 adrenergic receptor in rat cerebral cortex. Membrane homogenates of cerebral cortex were incubated in duplicate for 60 minutes at room temperature with 0.25 nM [^3H]prazosin in the absence or presence of test articles at 10 μM. After the incubation period, samples were filtered through glass fiber filters, the filters dried and then counted for radioactivity using a scintillation counter. Results are expressed as mean percent inhibition of control radioligand binding.
Binding IC50. […] Compound A was tested at 0.01-30 μM. […] Compound 1 and Compound 2, the S-enantiomer of Compound 1, were assayed at 0.03-100 μM. Radioactivity was measured as described above. The IC50 was defined as the concentration causing a half-maximum inhibition of control specific binding.

α1B adrenergic receptor = biological target: T2, α1B adrenergic receptor (Homo sapiens, UniProt P35368); assay: α1B adrenergic receptor antagonist assay (cAMP, CHO cells); format: cell-based
T2 construct: host or cells: CHO cells
T2 sequence (P35368 1-520): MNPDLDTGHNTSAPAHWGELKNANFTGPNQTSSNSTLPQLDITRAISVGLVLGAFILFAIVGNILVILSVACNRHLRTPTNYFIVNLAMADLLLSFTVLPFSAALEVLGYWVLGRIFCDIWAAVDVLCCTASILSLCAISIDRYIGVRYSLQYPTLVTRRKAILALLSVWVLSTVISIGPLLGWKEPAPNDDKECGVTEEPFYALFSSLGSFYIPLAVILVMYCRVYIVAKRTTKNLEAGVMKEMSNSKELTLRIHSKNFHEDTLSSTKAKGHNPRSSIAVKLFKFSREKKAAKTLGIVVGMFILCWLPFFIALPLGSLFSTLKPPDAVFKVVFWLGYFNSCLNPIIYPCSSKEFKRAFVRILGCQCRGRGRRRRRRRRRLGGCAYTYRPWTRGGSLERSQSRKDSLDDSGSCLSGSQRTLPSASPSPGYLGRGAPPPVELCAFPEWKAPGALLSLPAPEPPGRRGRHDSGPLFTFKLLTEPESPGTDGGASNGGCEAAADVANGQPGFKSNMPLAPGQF
Experimental: as §1
Antagonist activity. The antagonistic effects of test compounds on the α1A and α1B adrenergic receptors were measured using human receptor-transfected Chinese hamster ovary (CHO) cells. Antagonist activity was determined by measuring compound effect on agonist (epinephrine)-induced calcium mobilization in the α1A receptor assay or cAMP levels in the α1B receptor assay. In these experiments, CHO cells were incubated in duplicate at room temperature with test article and epinephrine at 3 nM in the α1A receptor assays or at 3000 nM in the α1B receptor assay. Compound A was tested in the α1A receptor assay at 0.01-30 μM. […] Compound 1 and Compound 2 were assayed at 0.03 to 30 μM in the α1A receptor assay and 0.03 to 100 μM in the α1B receptor assay. In the α1A receptor assay, cytosolic calcium levels were measured fluorometrically using the fluorescent probe, Fluo4 Direct. Intracellular cAMP levels in the α1B adrenergic receptor assay were measured by homogenous time-resolved fluorescence (HTRF). The antagonism IC50 was defined as the concentration causing a half-maximum inhibition of control agonist response.

MM cell lines = assay: Daratumumab-mediated ADCP assay; format: cell-based, human; details: for daratumumab-mediated ADCP: ARH-77 cell line
Experimental: ADCP assay: The effect of Compound 2 or pomalidomide on daratumumab-mediated ADCP was determined in a panel of MM cell lines. Monocytes were plated in a 96 well plate at 40,000 cells per well in 100 μL volume of complete AIM-V media containing 50 ng/mL of M-CSF. The cells were allowed to settle onto the plate for 15 minutes at room temperature before placing into 37° C., 5% C02 incubator for 9 days to allow for differentiation into macrophages. The culture media was replenished with fresh complete media every 3-4 days. On the morning of the ADCP assay, the macrophages were serum starved for 2-4 hours at 37° C., 5% C02 before co-culturing with the MM cells. The MM cells were pretreated with sub-lethal concentrations of Compound 2 or pomalidomide for 72 h. On the day of the assay, the MM cells were washed with PBS and labeled with CSFE for 15 minutes. The reaction was stopped with an equal volume of 20% FBS. The cells were washed twice with PBS and resuspended in AIM-V media at 1.6×10^6 cells/mL. Then 50 μL of MM cells was mixed with 50 μL of 2 μg/mL daratumumab for 10 minutes at room temperature before adding to the serum starved macrophages. Each condition was assayed in triplicate. The final volume of the assay was 200 μL containing 10% human serum with an effector to target ratio of […]. The plate was spun at 500 rpm for 1 minute followed by incubation at 37° C., 5% CO2 for 3 h. At the end of the incubation, the plate was washed with 100 μL of PBS and the remaining cells were stained with anti-CD14 and anti-CD138 to identify the macrophages and MM cells, respectively. The plate was washed and the wells were filled with 100 μL of PBS. The macrophages were detached from the bottom of the wells with the addition of 50 μL of 0.25% trypsin. The samples were neutralized with the addition of 50 μL of complete AIM-V media. The samples were analyzed on flow cytometer. The percent phagocytosis was determined by the CSFE/CD14 double positive cells divided by the total number of CD14+ cells times 100.

Row | Compound | IC50 (dopamine D2S receptor) | inhibition at 10 µM (dopamine D2S receptor) | Adrenergic α1 (non-selective) % Inhibition (10 μM) [1] | IC50 [1] | IC50 (α1B adrenergic receptor) | daratumumab-mediated ADCP of pretreated MM cells (MM cell lines; 72 h pretreatment, macrophages E:T 2:1) | daratumumab-mediated ADCP (MM cell lines) | Dopamine D2S % Inhibition (10 μM) (dopamine D2S receptor; 10 μM) | IC50 (α1B adrenergic receptor; epinephrine 3000 nM, cAMP, read-out: Antagonism IC50 α1B)
1 | N#Cc1ccc(N2CCN(Cc3ccc(COc4cccc5c4CN(C4CCC(=O)NC4=O)C5=O)cc3)CC2)c(F)c1 (racemic) [Compound 1, 4-(4-(4-(((2-(2,6-dioxopiperidin-3-yl)-1-oxoisoindolin-4-yl)oxy)methyl)benzyl)piperazin-1-yl)-3-fluorobenzonitrile] | 7400 nM | 55% | 67% | 3900 nM | 6900 nM | – | – | – | –
2 | N#Cc1ccc(N2CCN(Cc3ccc(COc4cccc5c4CN([C@H]4CCC(=O)NC4=O)C5=O)cc3)CC2)c(F)c1 [Compound 2, (S)-4-(4-(4-(((2-(2,6-dioxopiperidin-3-yl)-1-oxoisoindolin-4-yl)oxy)methyl)benzyl)piperazin-1-yl)-3-fluorobenzonitrile] | ~2000 nM | 52% | 62% | ~1300 nM | 2400 nM | more sensitive to daratumumab-mediated ADCP compared to untreated and pomalidomide treated cells | no enhanced ADCP | – | –
3 | O=C1CC[C@H](N2Cc3c(OCc4ccc(CN5CCN(c6ccc(F)cc6F)CC5)cc4)cccc3C2=O)C(=O)N1 [Compound B] | – | – | 98% and 100% | 24 nM | – | – | – | 99, % and 99^a % | 78 nM
4 | Nc1cccc2c1C(=O)N(C1CCC(=O)NC1=O)C2=O (centres unmarked) [Pomalidomide, pomalidomide] | – | – | – | – | – | – | no enhanced ADCP | – | –
